Assay results reported in ChEMBL document CHEMBL6103561, “Chemical dissection of selective myeloid leukemia-1 inhibitors: How they were found and evolved” (Eur J Med Chem, 2025).
≈ marks a conversion by molar mass, not a printed value. Each block holds one compound with its values, some of them ahead of it.

Key:
[1] = target: T1, Induced myeloid leukemia cell differentiation protein Mcl-1 (Homo sapiens, UniProt Q07820)
Bcl-2-like protein 1 [2] = target: T2, Bcl-2-like protein 1 (Homo sapiens, UniProt Q07817); experiment: Binding affinity to Bcl-XL (unknown origin) assessed as inhibition constant by fluorescence polarization assay
Bcl-2-like protein 1 [3] = target: T2, Bcl-2-like protein 1
[4] = target: T1, Induced myeloid leukemia cell differentiation protein Mcl-1; remark: listed apart in the source
Description: Inhibition of N-terminal GST-tagged human MCL-1 (1 to 23 residues) extracted from Escherichia coli BL21 (DE3) by TR-FRET assay

[5] = target: T1, Induced myeloid leukemia cell differentiation protein Mcl-1; remark: listed apart in the source
Description: Binding affinity to MCL-1 (unknown origin) assessed as inhibition constant by TR-FRET assay

MV4-11 [6] = experiment: Antiproliferative activity against human MV4-11 cells
[7] = target: T3, Apoptosis regulator Bcl-2 (Homo sapiens, UniProt P10415); experiment: Binding affinity to BCL-2 (unknown origin) assessed as inhibition constant incubated for 60 mins by TR-FRET assay
Bcl-2-like protein 1 [8] = target: T2, Bcl-2-like protein 1; experiment: Binding affinity to BCL-XL (unknown origin) assessed as inhibition constant incubated for 60 mins by TR-FRET assay
NCI-H929 [9] = experiment: Antiproliferative activity against human NCI-H929 cells assessed as reduction in cell viability
[10] = Solubility of compound in water at pH 7 measured after 24 hrs by HPLC analysis
OPM-2 = experiment: Antiproliferative activity against human OPM-2 cells
[11] = target: T3, Apoptosis regulator Bcl-2
Description: Binding affinity to BCL-2 (unknown origin) as assessed as inhibition constant

[12] = target: T1, Induced myeloid leukemia cell differentiation protein Mcl-1; remark: listed apart in the source
Description: Binding affinity to MCL-1 (unknown origin) assessed as inhibition constant

NCI-H929 [13] = experiment: Growth inhibition of human NCI-H929 cells
[14] = Clearance in mouse at 1 mg/kg, iv; settings: in vivo
in vivo = settings: mouse
[15] = target: Voltage-gated inwardly rectifying potassium channel KCNH2 (Homo sapiens, UniProt Q12809)
Bcl-2-like protein 1 [16] = target: T2, Bcl-2-like protein 1; experiment: Binding affinity to BCL-XL (unknown origin) assessed as inhibition constant
[17] = target: T1, Induced myeloid leukemia cell differentiation protein Mcl-1; remark: listed apart in the source
[18] = target: T1, Induced myeloid leukemia cell differentiation protein Mcl-1; experiment: Binding affinity to N-terminal MCL-1 (unknown origin) using 5-FAM peptide as substrate by fluorescence polarization assay
HL-60 [19] = experiment: Cytotoxicity against human HL-60 cells assessed as reduction in cell viability incubated for 48 hrs by CCK-8 assay; settings: HL-60, 48 h
Bcl-2-like protein 1 [20] = target: T2, Bcl-2-like protein 1; remark: listed apart in the source
Description: Inhibition of Bcl-XL (unknown origin) by FRET assay

[21] = target: T1, Induced myeloid leukemia cell differentiation protein Mcl-1; remark: listed apart in the source
Description: Inhibition of MCL-1 (unknown origin)

[22] = Antiproliferative activity against human BL-2 cells; settings: BL2
[23] = target: T1, Induced myeloid leukemia cell differentiation protein Mcl-1; remark: listed apart in the source
Description: Binding affinity to MCL-1 (unknown origin) assessed as inhibition constant by fluorescence polarization assay

HL-60 [24] = experiment: Growth inhibition of human HL-60 cells
MV4-11 [25] = experiment: Antiproliferative activity against human MV4-11 cells assessed as reduction in cell viability
[26] = target: T3, Apoptosis regulator Bcl-2; remark: listed apart in the source
Description: Inhibition of Bcl-2 (unknown origin) by fluorescence polarization assay

MOLP-8 = experiment: Antiproliferative activity against human MOLP8 cells

T2 sequence (Q07817 whole entry): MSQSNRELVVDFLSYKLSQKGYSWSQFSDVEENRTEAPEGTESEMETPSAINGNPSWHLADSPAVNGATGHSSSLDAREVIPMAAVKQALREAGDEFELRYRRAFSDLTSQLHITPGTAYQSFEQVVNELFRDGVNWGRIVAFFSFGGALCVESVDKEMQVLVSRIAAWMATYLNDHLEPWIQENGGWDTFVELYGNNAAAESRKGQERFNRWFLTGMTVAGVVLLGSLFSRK
T3 sequence (P10415 whole entry): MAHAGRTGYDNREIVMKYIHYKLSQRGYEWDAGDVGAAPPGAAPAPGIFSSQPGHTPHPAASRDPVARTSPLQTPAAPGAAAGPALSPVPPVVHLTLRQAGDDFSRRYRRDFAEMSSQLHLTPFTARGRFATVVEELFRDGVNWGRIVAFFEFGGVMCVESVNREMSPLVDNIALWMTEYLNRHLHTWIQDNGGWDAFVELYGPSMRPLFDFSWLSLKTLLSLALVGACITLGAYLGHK
T1 sequence (Q07820 whole entry): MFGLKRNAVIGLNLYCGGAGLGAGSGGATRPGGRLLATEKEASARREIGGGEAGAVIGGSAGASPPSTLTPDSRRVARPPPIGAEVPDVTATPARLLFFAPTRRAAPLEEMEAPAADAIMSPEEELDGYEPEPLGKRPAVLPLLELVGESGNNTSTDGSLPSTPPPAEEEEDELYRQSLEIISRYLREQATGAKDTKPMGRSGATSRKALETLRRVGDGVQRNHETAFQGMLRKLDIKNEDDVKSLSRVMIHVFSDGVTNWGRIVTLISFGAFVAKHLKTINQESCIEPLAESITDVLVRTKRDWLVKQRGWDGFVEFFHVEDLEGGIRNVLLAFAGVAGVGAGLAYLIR
Chain of Voltage-gated inwardly rectifying potassium channel KCNH2 (Q12809 whole entry): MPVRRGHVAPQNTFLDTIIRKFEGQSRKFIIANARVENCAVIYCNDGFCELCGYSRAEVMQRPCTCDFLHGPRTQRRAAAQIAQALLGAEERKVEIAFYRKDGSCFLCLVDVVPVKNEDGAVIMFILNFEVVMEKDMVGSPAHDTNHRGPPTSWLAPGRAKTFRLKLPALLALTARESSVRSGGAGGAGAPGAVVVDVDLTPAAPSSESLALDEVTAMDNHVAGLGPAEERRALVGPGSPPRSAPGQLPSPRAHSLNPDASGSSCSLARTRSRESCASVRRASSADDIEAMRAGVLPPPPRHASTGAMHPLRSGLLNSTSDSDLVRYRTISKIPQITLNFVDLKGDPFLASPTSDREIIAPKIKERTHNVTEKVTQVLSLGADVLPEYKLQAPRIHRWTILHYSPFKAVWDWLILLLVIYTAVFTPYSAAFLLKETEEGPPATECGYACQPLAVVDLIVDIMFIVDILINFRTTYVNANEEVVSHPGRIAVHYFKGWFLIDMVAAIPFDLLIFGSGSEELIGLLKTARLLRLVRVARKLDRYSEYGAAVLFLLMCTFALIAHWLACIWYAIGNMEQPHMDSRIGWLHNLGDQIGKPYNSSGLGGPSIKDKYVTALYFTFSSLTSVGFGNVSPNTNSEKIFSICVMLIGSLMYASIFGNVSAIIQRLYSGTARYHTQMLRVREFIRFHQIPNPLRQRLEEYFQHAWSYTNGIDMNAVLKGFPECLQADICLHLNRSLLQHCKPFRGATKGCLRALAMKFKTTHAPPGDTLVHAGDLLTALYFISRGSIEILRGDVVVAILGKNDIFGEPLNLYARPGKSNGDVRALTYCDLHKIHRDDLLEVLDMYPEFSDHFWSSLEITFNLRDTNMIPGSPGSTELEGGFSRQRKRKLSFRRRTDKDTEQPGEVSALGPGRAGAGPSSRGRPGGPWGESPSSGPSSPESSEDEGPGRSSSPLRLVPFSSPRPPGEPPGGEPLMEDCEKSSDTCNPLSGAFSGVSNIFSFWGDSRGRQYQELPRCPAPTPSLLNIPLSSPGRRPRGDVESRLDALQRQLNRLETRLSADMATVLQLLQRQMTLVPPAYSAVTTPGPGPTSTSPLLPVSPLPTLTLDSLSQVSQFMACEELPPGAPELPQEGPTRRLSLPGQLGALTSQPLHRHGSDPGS

Structure (SMILES): Cc1ccc(S(=O)(=O)/N=C2/C=C(Sc3nc[nH]n3)C(=O)c3ccccc32)cc1
IC50 [1]: 14 nM

Structure (SMILES): O=C(c1ccccc1O)c1[nH]c(Cl)c(Cl)c1-n1c(C(=O)c2ccccc2O)cc(Cl)c1Cl
IC50 (Bcl-2-like protein 1 [3]): > 100000 nM
IC50 [4]: 10100 nM

Structure (SMILES): O=C(O)CSc1ccc(C(=O)c2[nH]c(Cl)c(Cl)c2-n2c(C(=O)c3ccc(SCC(=O)O)cc3O)cc(Cl)c2Cl)c(O)c1
IC50 (Bcl-2-like protein 1 [3]): > 100000 nM

Structure (SMILES): Cc1nn(C)c(C)c1-c1cccc2c(CCCOc3cccc4ccccc34)c(C(=O)O)n(CCN3CCOCC3)c12
Ki [5]: 1 nM

Structure (SMILES): Cc1nn(C)c(COc2ccc(N3CCN(S(=O)(=O)N(C)C)CC3)cc2)c1-c1cccc2c(CCCOc3cccc4ccccc34)c(C(=O)O)n(CCN3CCOCC3)c12
EC50 (MV4-11 [6]): 1860 nM
Ki [7]: 132 nM
Ki (Bcl-2-like protein 1 [8]): > 660 nM

Structure (SMILES): CC(=O)N1CCN(c2ccc(OCc3nn(C)c(C)c3-c3cccc4c(CCCOc5cccc6ccccc56)c(C(=O)O)n(Cc5cccnc5)c34)cc2)CC1
Ki [5]: 1 nM

Structure (SMILES): Cc1c(-c2cccc3c(CCCOc4cccc5ccccc45)c(C(=O)O)n(C)c23)c(COc2ccc(B(O)O)c(C=O)c2)nn1C
IC50 [1]: 4200 nM

Structure (SMILES): COc1ccccc1-c1nccc(COc2ccccc2C[C@@H](Oc2ncnc3sc(-c4ccc(F)cc4)c(-c4ccc(OCCN5CCN(C)CC5)c(Cl)c4C)c23)C(=O)O)n1
IC50 (NCI-H929 [9]): 1 nM

Structure (SMILES): CO[C@H]1/C=C/C[C@H](C)[C@@H](C)S(=O)(=O)NC(=O)c2ccc3c(c2)N(C[C@@H]2CCO[C@H]21)C[C@@]1(CCCc2cc(Cl)ccc21)CO3
solubility at 24 h [10]: < 0.1 µM
IC50 (OPM-2): 432 nM

Structure (SMILES): CO[C@@H]1/C(F)=C/C[C@H](C)[C@@H](C)S(=O)(=O)NC(=O)c2ccc3c(c2)N(C[C@@H]2CCO[C@H]21)C[C@@]1(CCCc2cc(Cl)ccc21)CO3
solubility at 24 h [10]: 11.2 µM (≈ 7.25 µg/mL)
IC50 (OPM-2): 1120 nM

Structure (SMILES): Cc1cc(OCCCn2cc(-c3cccc(C(F)(F)F)c3)c3cc(C(=O)O)ccc32)cc(C)c1Cl
Ki [11]: 560 nM
Ki [12]: 400 nM

Structure (SMILES): Cc1cc(Cl)cc(C)c1OCCCc1c2n(c3c(-c4c(C)nn(C)c4C)c(Cl)ccc13)CCCN(c1cn(C)c3ccc(C(=O)O)cc13)C2=O
GI50 (NCI-H929 [13]): 300 nM
clearance [14]: 245 mL/min/kg
Ki [5]: < 0.1 nM
half-life (in vivo): 34.2 min

Structure (SMILES): CCOP(=O)(OCC)c1ccc(C(=O)c2[nH]c(Cl)c(Cl)c2-n2c(C(=O)c3ccc(P(=O)(OCC)OCC)cc3O)cc(Cl)c2Cl)c(O)c1
IC50 (Bcl-2-like protein 1 [3]): > 100000 nM

Structure (SMILES): COCCOCc1nn(C)c2c1CSCc1cc(n(C)n1)CSc1cc(c3ccc(F)cc3c1)OCCCc1c(C(=O)O)n(CCN3CCOCC3)c3c-2c(Cl)ccc13
Ki (Bcl-2-like protein 1 [8]): 0.02 nM
solubility at 24 h [10]: 550 µM (≈ 475 µg/mL)
IC50 [15]: > 30000 nM

Structure (SMILES): Cc1c(-c2cccc3c(CCCOc4cccc5ccccc45)c(C(=O)O)n(C)c23)c(COc2ccc(S(=O)(=O)F)cc2)nn1C
IC50 [1]: 4200 nM

Structure (SMILES): COCCOCc1nn(C)c2c1CSCc1cc(n(C)n1)CSc1cc(c3ccc(F)cc3c1)OCCCc1c(C(=O)O)n(C)c3c-2c(Cl)ccc13
Ki (Bcl-2-like protein 1 [8]): 0.018 nM
solubility at 24 h [10]: 580 µM (≈ 443 µg/mL)
IC50 [15]: > 30000 nM

Structure (SMILES): COc1ccccc1-c1nccc(COc2ccc3cc2C[C@H](C(=O)O)Oc2ncnc4sc(-c5ccc(F)cc5)c(c24)-c2ccc(c(Cl)c2C)CN(CCN2CCN(C)CC2)CO3)n1
Ki (Bcl-2-like protein 1 [16]): > 660 nM
Ki [11]: > 1200 nM
Ki [12]: 5.54 nM

Structure (SMILES): O=C(O)CCn1cc(-c2cccc(C(F)(F)F)c2)c2ccc(-c3ccccc3)cc21
Ki [11]: 2380 nM
Ki [12]: 410 nM

Structure (SMILES): COCCOCn1nc(C)c2c1CSCc1cc(n(C)n1)CCc1cc(c3ccc(F)cc3c1)OCCCn1c(C(=O)O)c(C)c3c-2c(Cl)ccc31
Ki (Bcl-2-like protein 1 [8]): 0.015 nM
solubility at 24 h [10]: 3140 µM (≈ 2340 µg/mL)
IC50 [15]: > 30000 nM

Structure (SMILES): CC(C)CN1C[C@@H](c2ccc(Cl)cc2Cl)Oc2ccc(C(=O)O)cc21
IC50 [17]: 55000 nM

Structure (SMILES): COc1n[nH]cc1C(=O)NS1(=O)=NC(=O)c2ccc3c(c2)N(C[C@@H]2CCO[C@H]2[C@H](OC)/C(F)=C/C[C@H](C)C1)C[C@@]1(CCCc2cc(Cl)ccc21)CO3 (some centres not stated)
solubility at 24 h [10]: 520 µM (≈ 393 µg/mL)
IC50 (OPM-2): 44 nM

Structure (SMILES): Cc1c(Cl)c2c(Cl)c(C)c1-c1c(-c3ccc(F)cc3)sc3ncnc(c13)O[C@@H](C(=O)O)Cc1cc(ccc1OCc1ccnc(-c3ccc(OC[C@H]4COCCO4)cc3)n1)OCC(CN1CCN(C)CC1)O2 (some centres not stated)
IC50 (NCI-H929 [9]): 40 nM
Ki [5]: 0.01 nM

Structure (SMILES): CC(=O)N1CCN(c2ccc(OCc3cccc(-c4ccc5c(-c6cccc(C(F)(F)F)c6)cn(CCC(=O)O)c5c4)c3)cc2)CC1
GI50 (HL-60 [24]): 3150 nM
Ki [12]: 370 nM

Structure (SMILES): CO[C@@]1(CN2CCN3CCCC[C@@H]3C2)/C=C/C[C@H](C)[C@@H](C)S(=O)(=O)NC(=O)c2ccc3c(c2)N(C[C@@H]2CC[C@H]21)C[C@@]1(CCCc2cc(Cl)ccc21)CO3
IC50 (MV4-11 [25]): 150 nM
IC50 (OPM-2): 50 nM

Structure (SMILES): Cc1cc2c(C(C)C)c(O)c(O)cc2c(O)c1-c1c(C)cc2c(C(C)C)c(O)c(O)cc2c1O [APOGOSSYPOL]
IC50 [26]: 2800 nM

Structure (SMILES): Cc1c2c(nn1C)CSCc1cc(n(C)n1)CSc1cc(c3ccccc3c1)OCCCc1c(C(=O)O)n(C)c3c-2c(Cl)ccc13 [AZD-5991]
EC50 (MOLP-8): > 16000 nM

Structure (SMILES): COC1=CC(c2cc3ccccc3[nH]2)=N/C1=C\c1[nH]c(C)cc1C [OBATOCLAX]
Ki (Bcl-2-like protein 1 [2]): > 1000 nM
Ki [11]: 200 nM
Ki [12]: > 1000 nM

Structure (SMILES): CO[C@H]1/C=C/C[C@H](C)[C@@H](C)S(=O)(=O)NC(=O)c2ccc3c(c2)N(C[C@@H]2CC[C@H]21)C[C@@]1(CCCc2cc(Cl)ccc21)CO3 [TAPOTOCLAX]
IC50 (MV4-11 [25]): 150 nM

Further lines, with some results ahead:

Ki (Bcl-2-like protein 1 [2]): 290 nM
Structure (SMILES): CC(C)c1ccccc1Cc1cc(C(=O)Nc2ccc(S(=O)(=O)c3ccccc3C(C)(C)C)cc2)c(O)c(O)c1O

IC50 (Bcl-2-like protein 1 [3]): > 50000 nM
Structure (SMILES): O=C(O)Cn1cc(-c2cc(O)c(C(=O)c3[nH]c(Cl)c(Cl)c3-n3c(C(=O)c4cc(Cl)c(-c5cn(CC(=O)O)nn5)cc4O)cc(Cl)c3Cl)cc2Cl)nn1

IC50 (NCI-H929 [9]): 1 nM
Structure (SMILES): Cc1c(-c2c(-c3ccc(F)o3)sc3ncnc(O[C@H](Cc4ccccc4OCc4ccnn4CC(F)(F)F)C(=O)O)c23)ccc(OCCN2CCN(C)CC2)c1Cl

solubility at 24 h [10]: 8.3 µM (≈ 5.37 µg/mL)
Structure (SMILES): CO[C@H]1/C(F)=C/C[C@H](C)[C@@H](C)S(=O)(=O)NC(=O)c2ccc3c(c2)N(C[C@@H]2CCO[C@H]21)C[C@@]1(CCCc2cc(Cl)ccc21)CO3
IC50 (OPM-2): 191 nM

IC50 [1]: 4200 nM
Structure (SMILES): Cc1c(-c2cccc3c(CCCOc4cccc5ccccc45)c(C(=O)O)n(C)c23)c(COc2ccccc2)nn1C

IC50 [1]: 4200 nM
Structure (SMILES): C#Cc1ccc(OCc2nn(C)c(C)c2-c2cccc3c(CCCOc4cccc5ccccc45)c(C(=O)O)n(C)c23)cc1C=O

GI50 (NCI-H929 [13]): 190 nM
Ki [5]: 0.097 nM
Structure (SMILES): Cc1cc(Cl)cc(C)c1OCCCc1c2n(c3c(-c4c(C)nn(C)c4C)c(Cl)ccc13)[C@H](C)CCN(c1cn(C)c3ccc(C(=O)O)cc13)C2=O

IC50 [12]: 0.05 nM
Structure (SMILES): CC[C@@H]1CC/C=C/[C@H](O)[C@@H]2CC[C@H]2CN2C[C@@]3(CCc4cc(Cl)ccc43)COc3ccc(cc32)C(=O)NS1(=O)=O

Ki [18]: 490 nM
Structure (SMILES): Cc1ccc(Oc2ccc(O)c(O)c2)c(-c2ccsc2S(=O)(=O)NCCNC(=O)Nc2cc(C(F)(F)F)cc(C(F)(F)F)c2)c1
IC50 (HL-60 [19]): 3700 nM

IC50 (Bcl-2-like protein 1 [20]): 3 nM
IC50 [21]: 8 nM
Structure (SMILES): Cc1cc(S(=O)(=O)NC(=O)c2cc(C)c(-c3cccc4c(CCCOc5cccc6ccccc56)c(C(=O)O)nn34)c(C)c2)ccc1N[C@H](CCN(C)C)CSc1ccccc1

Ki [23]: 300 nM
Structure (SMILES): CC1(C)CC[C@@H](OC(=O)/C=C/c2ccccc2)[C@]2(C)C(C=O)C(C=O)=C[C@H](O)[C@@]12C (some centres not stated)
IC50 [22]: 4000 nM
IC50 [15]: > 10000 nM

Ki [12]: > 100000 nM
Structure (SMILES): O=S(=O)(Nc1cc(Sc2ccco2)c(O)c2ccccc12)c1cccs1

Ki [11]: 12900 nM
Ki [12]: 8850 nM
Structure (SMILES): Cc1cc(OCCCn2ccc3cc(C(=O)O)ccc32)cc(C)c1Cl
